The subject of one data set is RS4;11 cells. The data set is described as follows: RS4;11 cell viability, CCK-8 assay. It is filed as cell-based. The conditions noted are these: Homo sapiens, RS4-11, 96 h, CCK-8, 4 days, read-out: RS4, 11 IC50 (Bcl-2 dependent). The method, then:
RS4;11 cells were obtained from American Type Culture Collection (ATCC). They were used within three months of thawing fresh vials. Cells were maintained in the recommended culture medium with 10% FBS at 37° C. and an atmosphere of 5% CO2.
The effect of representative Compounds of the Disclosure on cell viability was determined using Cell Counting Kit-8 (CCK-8) assay (Dojindo, Rockville, Md.) according to the manufacturer's instructions. 200 μL of a RS4;11 cell suspension (10000 cells/well) in culture medium were seeded into 96-well plates and cultured overnight. Each tested compound was serially diluted in culture medium, and 20 μL of the compound dilution was added to the corresponding well of the cell plate. After the addition of the tested compound, the cells were incubated at 37° C. in an atmosphere of 5% CO2 for 4 days. At the end of 4 days, 10 μL of CCK-8 solution was added to each well of the plate and incubated for 1-4 hours. The plates were read at 450 nm on the microplate spectrophotometer (Epoch2, BioTek). The readings were normalized to the vehicle cells, and the IC50 was calculated by nonlinear regression analysis using GraphPad Prism 5 software.

The target of a further data set is Bcl-2 (Homo sapiens (Human), UniProt P10415).
Another data set deals with Molm13 cells. Description: Molm13 cell viability, CCK-8 assay. The data set is classed as cell-based. The note with it: Homo sapiens, MOLM-13, 96 h, CCK-8, 4 days, read-out: Molm13 IC50 (Bcl-2 dependent).
For the next data set, the target named is Bcl-xL (Homo sapiens (Human), UniProt Q07817). The data set is described as follows: Fluorescence polarization competitive binding assay, Bcl-xL. The note with it: FP competition, 10 nM Bcl-xL, 2 nM Flu-BAK probe; read-out: Inhibitory activity IC50 Bcl-xL.
For the next data set, the target named is Mcl-1 (Homo sapiens (Human), UniProt Q07820). The data set is described as follows: FP saturation binding of fluorescent probe to Mcl-1. The note with it: 2 nM probe.
The nature of a further data set: Pharmacokinetics in rats. The data set is classed as in vivo. The method, then:
The pharmacokinetics of ABT-199 and representative Compounds of the Disclosure were evaluated in rats at an IV dose of 2 mg/kg and an oral dose of 20 mg/kg.

Like-named read-outs stand apart in the source and are kept apart here.

Sequence of Bcl-xL (Q07817 whole entry): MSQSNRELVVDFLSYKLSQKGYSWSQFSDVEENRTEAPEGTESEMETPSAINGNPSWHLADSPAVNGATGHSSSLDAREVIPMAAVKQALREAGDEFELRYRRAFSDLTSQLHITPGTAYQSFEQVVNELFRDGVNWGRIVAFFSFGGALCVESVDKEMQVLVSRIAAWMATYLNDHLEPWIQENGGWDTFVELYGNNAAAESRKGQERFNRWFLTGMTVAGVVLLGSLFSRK
Sequence of Bcl-2 (P10415 whole entry): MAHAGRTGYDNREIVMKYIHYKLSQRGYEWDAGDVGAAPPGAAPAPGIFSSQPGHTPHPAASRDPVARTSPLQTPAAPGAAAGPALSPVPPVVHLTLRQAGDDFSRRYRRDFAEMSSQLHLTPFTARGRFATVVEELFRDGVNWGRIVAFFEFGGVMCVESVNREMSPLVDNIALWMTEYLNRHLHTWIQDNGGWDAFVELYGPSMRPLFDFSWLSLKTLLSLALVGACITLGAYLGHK
Sequence of Mcl-1 (Q07820 whole entry): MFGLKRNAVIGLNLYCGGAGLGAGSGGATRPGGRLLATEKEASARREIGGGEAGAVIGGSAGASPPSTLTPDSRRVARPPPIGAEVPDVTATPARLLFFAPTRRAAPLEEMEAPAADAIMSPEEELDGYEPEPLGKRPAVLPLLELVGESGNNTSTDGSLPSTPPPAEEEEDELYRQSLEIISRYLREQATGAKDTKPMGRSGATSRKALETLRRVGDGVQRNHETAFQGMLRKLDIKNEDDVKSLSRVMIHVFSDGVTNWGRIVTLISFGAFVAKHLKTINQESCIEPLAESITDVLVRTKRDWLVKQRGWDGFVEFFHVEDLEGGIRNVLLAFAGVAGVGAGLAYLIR
Method for Bcl-2: (§1) Fluorescence polarization values were measured using the Infinite M-1000 plate reader (Tecan U.S., Research Triangle Park, N.C.) in Microfluor 1 96-well, black, round-bottom plates (Thermo Scientific). […] Plates were mixed and incubated at room temperature for 1 hour with gentle shaking to assure equilibrium. […] Equilibrium dissociation constants (Kd) were then calculated by fitting the sigmoidal dose-dependent FP increases as a function of protein concentrations using Graphpad Prism 5.0 software (Graphpad Software, San Diego, Calif.).
(§2) Mixtures of 5 μl of the tested inhibitors in DMSO and 120 μl of pre-incubated protein/probe complexes in the assay buffer were added into assay plates and incubated at room temperature for 2 hours with gentle shaking. […] FP values were measured as described above. IC50 values were determined by nonlinear regression fitting of the competition curves.
Method for Bcl-xL: as §1, §2
Method for Mcl-1: as §1
Method for Molm13 cells: Molm13 cells were obtained from Deutsche Sammlung von Mikroorganismen und Zellkulturen GmbH (DSMZ). They were used within three months of thawing fresh vials. Cells were maintained in the recommended culture medium with 10% FBS at 37° C. and an atmosphere of 5% CO2.
200 μL of a Molm13 cell suspension (10000 cells/well) in culture medium were seeded into 96-well plates and cultured overnight. Each tested compound was serially diluted in culture medium, and 20 μL of the compound dilution was added to the corresponding well of the cell plate. After the addition of the tested compound, the cells were incubated at 37° C. in an atmosphere of 5% CO2 for 4 days. […] The plates were read at 450 nm on the microplate spectrophotometer (Epoch2, BioTek). The readings were normalized to the vehicle cells, and the IC50 was calculated by nonlinear regression analysis using GraphPad Prism 5 software.

Turning to `CNc1ccc(S(=O)(=O)NC(=O)c2ccc(N3CCN(CC4=C(c5ccc(Cl)cc5)CC5(CCC5)CC4)CC3)cc2Oc2cnc3[nH]ccc3c2)cc1[N+](=O)[O-]` [compound 10, 2-((1H-pyrrolo[2,3-b]pyridin-5-yl)oxy)-4-(4-((6-(4-chlorophenyl)spiro[3.5]non-6-en-7-yl)methyl)piperazin-1-yl)-N-((4-(methylamino)-3-nitrophenyl)sulfonyl)benzamide], the IC50 worked out at 32 nM with RS4;11 cells, 3.3 nM against Bcl-2, 182 nM with Molm13 cells and 14 nM at Bcl-xL.
The matching figures for `CN(C)c1ccc(S(=O)(=O)NC(=O)c2ccc(N3CCN(CC4=C(c5ccc(Cl)cc5)CC5(CCC5)CC4)CC3)cc2Oc2cnc3[nH]ccc3c2)cc1[N+](=O)[O-]` [compound 11, 2-((1H-pyrrolo[2,3-b]pyridin-5-yl)oxy)-4-(4-((6-(4-chlorophenyl)spiro[3.5]non-6-en-7-yl)methyl)piperazin-1-yl)-N-((4-(dimethylamino)-3-nitrophenyl)sulfonyl)benzamide]: 61 nM, 11.9 nM, 1020 nM and 77.8 nM.
Compound “Flu-BID: Fluorescein labeled BID (79-99) peptide, fluorescent probe in FP assay for Mcl-1” gave a Kd with Mcl-1 of 6.9 ± 0.9 nM.
Take `O=C(NS(=O)(=O)c1cc([N+](=O)[O-])c2[nH]c(C3CC3)nc2c1)c1ccc(N2CCN(CC3=C(c4ccc(Cl)cc4)CC4(CCC4)CC3)CC2)cc1Oc1cnc2[nH]ccc2c1` [compound 59, 2-((1H-pyrrolo[2,3-b]pyridin-5-yl)oxy)-4-(4-((6-(4-chlorophenyl)spiro[3.5]non-6-en-7-yl)methyl)piperazin-1-yl)-N-((2-cyclopropyl-7-nitro-1H-benzo[d]imidazol-5-yl)sulfonyl)benzamide]: the half-maximal inhibitory concentration (IC50) in the data set on RS4;11 cells was 65 nM; on Bcl-2, 5 nM; in the data set with Molm13 cells, 468 nM; on Bcl-xL, 20.7 nM.
Regarding `O=C(NS(=O)(=O)c1ccc(NCC2CCOCC2)c([N+](=O)[O-])c1)c1ccc(N2CCN(CC3=C(c4ccc(Cl)cc4)CC4(CCC4)CC3)CC2)cc1Oc1cnc2[nH]ccc2c1` [Cpd. No. 3, 2-((1H-pyrrolo[2,3-b]pyridin-5-yl)oxy)-4-(4-((6-(4-chlorophenyl)spiro[3.5]non-6-en-7-yl)methyl)piperazin-1-yl)-N-((3-nitro-4-(((tetrahydro-2H-pyran-4-yl)methyl)amino)phenyl)sulfonyl)benzamide], the “AUC0-∞ IV” value in the data set “Pharmacokinetics in rats” (IV 2 mg/kg) worked out at 2683 n · gh/mL. In addition, in “Pharmacokinetics in rats” (oral 20 mg/kg), the “AUC0-∞ PO” value is 7775 n · gh/mL. In the data set “Pharmacokinetics in rats” (oral 20 mg/kg vs IV 2 mg/kg), the “F(AUC0-t)” value was 29.0%. In “Pharmacokinetics in rats” (rat, in vivo, IV 2 mg/kg), this compound registered an MRT inf of 2.37 h. Besides, the AUC(0-t) in “Pharmacokinetics in rats” (rat, in vivo, IV 2 mg/kg, read-out: AUC0-t IV) was found to be 2660 ng·h/mL; in “Pharmacokinetics in rats” (rat, in vivo, oral 20 mg/kg, read-out: AUC0-t PO), 7630 ng·h/mL. In “Pharmacokinetics in rats” (rat, in vivo, IV 2 mg/kg, read-out: CL (iv) (converted)), the clearance is 12.8 mL/min/kg. For the same compound, the Cmax in the data set “Pharmacokinetics in rats” (rat, in vivo, IV 2 mg/kg, read-out: Cmax IV) is 4200 ng/mL; in the data set “Pharmacokinetics in rats” (rat, in vivo, oral 20 mg/kg, read-out: Cmax PO), 1320 ng/mL. The time to peak (Tmax) in “Pharmacokinetics in rats” (rat, in vivo, IV 2 mg/kg, read-out: Tmax IV) was determined as 0.083 h; in the data set “Pharmacokinetics in rats” (rat, in vivo, oral 20 mg/kg, read-out: Tmax PO) it was 2 h. Also, the Vd in the data set “Pharmacokinetics in rats” (rat, in vivo, IV 2 mg/kg, read-out: Vss (iv)) stood at 1.86 L/kg. For the same compound, the half-life in “Pharmacokinetics in rats” (rat, in vivo, IV 2 mg/kg, read-out: t1/2 IV (converted)) was 4.94 h; in the data set “Pharmacokinetics in rats” (rat, in vivo, oral 20 mg/kg, read-out: t1/2 PO (converted)), 4.46 h. The IC50 in the data set with RS4;11 cells amounted to 26 nM; at Bcl-2, 1.2 nM; on Bcl-xL, 13.7 nM.
Turning to `O=C(NS(=O)(=O)c1ccc(NC[C@@H]2COCCO2)c([N+](=O)[O-])c1)c1ccc(C2=CCN(CC3=C(c4ccc(Cl)cc4)CC4(CCC4)CC3)CC2)cc1Oc1cnc2[nH]ccc2c1` [compound 1, (R)-N-((4-(((1,4-dioxan-2-yl)methyl)amino)-3-nitrophenyl)sulfonyl)-2-((1H-pyrrolo[2,3-b]pyridin-5-yl)oxy)-4-(1-((6-(4-chlorophenyl)spiro[3.5]non-6-en-7-yl)methyl)-1,2,3,6-tetrahydropyridin-4-yl)benzamide], the values for the IC50 with RS4;11 cells and in the data set with Molm13 cells were 3 nM and 47 nM, respectively.
Turning to `O=C(NS(=O)(=O)c1ccc(NCC2CCOCC2)c([N+](=O)[O-])c1)c1ccc(N2CCN(CC3=C(c4ccc(Cl)cc4)CC4(CC3)COC4)CC2)cc1Oc1cnc2[nH]ccc2c1` [Cpd. No. 2, 2-((1H-pyrrolo[2,3-b]pyridin-5-yl)oxy)-4-(4-((6-(4-chlorophenyl)-2-oxaspiro[3.5]non-6-en-7-yl)methyl)piperazin-1-yl)-N-((3-nitro-4-(((tetrahydro-2H-pyran-4-yl)methyl)amino)phenyl)sulfonyl)benzamide], the concentration for half-maximal inhibition (IC50) in the data set on RS4;11 cells was 5.5 nM; against Bcl-2, 0.76 nM; in the data set with Molm13 cells, 85 nM; on Bcl-xL, 10.6 nM.
As for `O=C(NS(=O)(=O)c1cc([N+](=O)[O-])c2cn(C3CCOCC3)nc2c1)c1ccc(N2CCN(CC3=C(c4ccc(Cl)cc4)CC4(CCC4)CC3)CC2)cc1Oc1cnc2[nH]ccc2c1` [compound 65, 2-((1H-pyrrolo[2,3-b]pyridin-5-yl)oxy)-4-(4-((6-(4-chlorophenyl)spiro[3.5]non-6-en-7-yl)methyl)piperazin-1-yl)-N-((4-nitro-2-(tetrahydro-2H-pyran-4-yl)-2H-indazol-6-yl)sulfonyl)benzamide], the half-maximal inhibitory concentration (IC50) with RS4;11 cells amounted to 11 nM; against Bcl-2 it was 1.4 nM; on Bcl-xL it was 9.9 nM.
Taken in the same sequence, the figures for `O=C(NS(=O)(=O)c1cc([N+](=O)[O-])c2cn(CC3CCOCC3)nc2c1)c1ccc(N2CCN(CC3=C(c4ccc(Cl)cc4)CC4(CCC4)CC3)CC2)cc1Oc1cnc2[nH]ccc2c1` [compound 63, 2-((1H-pyrrolo[2,3-b]pyridin-5-yl)oxy)-4-(4-((6-(4-chlorophenyl)spiro[3.5]non-6-en-7-yl)methyl)piperazin-1-yl)-N-((4-nitro-2-((tetrahydro-2H-pyran-4-yl)methyl)-2H-indazol-6-yl)sulfonyl)benzamide] were 55 nM, 1.3 nM and 7.1 nM.
Take `O=C(NS(=O)(=O)c1ccc(NCC2CCOCC2)c([N+](=O)[O-])c1)c1ccc(C2CCN(CC3=C(c4ccc(Cl)cc4)CC4(CCC4)CC3)CC2)cc1Oc1cnc2[nH]ccc2c1` [compound 12, 2-((1H-pyrrolo[2,3-b]pyridin-5-yl)oxy)-4-(1-((6-(4-chlorophenyl)spiro[3.5]non-6-en-7-yl)methyl)piperidin-4-yl)-N-((3-nitro-4-(((tetrahydro-2H-pyran-4-yl)methyl)amino)phenyl)sulfonyl)benzamide]: the IC50 was 78 nM in the data set on RS4;11 cells, 4.4 nM against Bcl-2 and 253 nM in the data set on Molm13 cells.
With `CC(C)c1nc2cc(S(=O)(=O)NC(=O)c3ccc(N4CCN(CC5=C(c6ccc(Cl)cc6)CC6(CCC6)CC5)CC4)cc3Oc3cnc4[nH]ccc4c3)cc([N+](=O)[O-])c2[nH]1` [compound 58, 2-((1H-pyrrolo[2,3-b]pyridin-5-yl)oxy)-4-(4-((6-(4-chlorophenyl)spiro[3.5]non-6-en-7-yl)methyl)piperazin-1-yl)-N-((2-isopropyl-7-nitro-1H-benzo[d]imidazol-5-yl)sulfonyl)benzamide], the IC50 in the data set on RS4;11 cells came out at 35 nM; against Bcl-2, 3.8 nM; with Molm13 cells, 250 nM; on Bcl-xL, 19.2 nM.
